# Test results taken from patent publication US20220299532A1, “CORRECTING PROTEIN MISFOLDING IN DIABETES” (Sanford Burnham Prebys Medical Discovery Institute, priority 2019, published 2022).
# Columns and labels:
# [1] = system: proinsulin complex formation; experiment: Inhibition of ER to Golgi trafficking: proinsulin disulfide linked HMW complex formation; format: cell-based; details: BFA treatment; with or without cycloheximide
# Experimental: Also, it is contemplated that increased proinsulin synthesis predisposes to oligomer and HMW complex formation. To test the notion that increased proinsulin expression, as in T2D, may exacerbate abnormal disulfide formation, the effect of brefeldin A (BFA), which promotes retrograde COP1 trafficking from the cis-Golgi to the ER to prevent export of secretory proteins to the Golgi, and thus increasing their concentration in the ER, was tested.
# mouse pancreatic islets = experiment: Proinsulin disulfide-linked / HMW complexes in murine islets, SDS-PAGE immunoblot (CCI-17); format: cell-based
# Experimental: Mouse pancreatic islet isolation: Mice were euthanized by CO2 narcosis as per an approved institutional animal protocol. The pancreas was rapidly excised, minced in ice-cold PBS, and digested in 4 mL of Collagenase P (Roche) 1.5 mg/mL in Hank's Balanced Salt Solution containing calcium and magnesium, in a shaking water bath for 30 min at 37° C. The digestion was terminated in 40 mL ice-cold PBS (—Ca/—Mg) and the digested tissue washed twice in this buffer. The sedimented tissue digest was then overlaid with 3 mL Histopaque-1077 and further overlayed with 6 mL ice cold PBS (—Ca/—Mg) before centrifugation (3000 rpm for 20 min at 10° C. with no brake) and transfer of the midlayer of the Histopaque gradient to a 15 ml tube for two further washes in ice-cold PBS. Finally, the sedimented tissue was transferred to a petri dish in ice-cold RPMI-1640 buffer and islets hand-picked to purity. In experiments involving drug or compound treatment, the islets were finally recovered overnight in RPMI-1640 supplemented with 10% fetal bovine serum (FBS), 10 mM HEPES pH 7.35, 1 mM sodium pyruvate and 0.05 mM beta-mercaptoethanol, in a humidified 5% CO2 incubator at 37° C. For some experiments, islets were snap frozen in liquid nitrogen and stored frozen prior to analysis.
# (§1) Lysis of cells or islets for SDS-PAGE and electrotransfer: After removal of media, cells were washed once with ice-cold PBS and lysed in RIPA buffer (10 mM Tris pH 7.4, 150 mM NaCl, 0.1% SDS, 1% NP40, 2 mM EDTA) plus protease inhibitor/phosphatase inhibitor cocktail (Sigma-Aldrich) or directly in Laemmli gel sample buffer. Lysates in RIPA buffer were immediately spun at 10,000 rpm for 10 min at 4° C. and the supernatants analyzed further or stored at −80° C. Islets that had been quick frozen were placed on ice and RIPA buffer containing protease inhibitor cocktail and phosphatase inhibitor was added. Lysis was carried out by gently pipetting or by syringe through a 30G needle. Total protein concentration in the lysate was determined by BCA or Bramhall assay, and 5-10 μg of samples prepared in SDS sample were resolved by SDS-PAGE in 4-12% Bis-Tris NuPAGE gels (Invitrogen) at 200 V for 30 min. Nonreducing gels were incubated in a solution containing 20 mM dithiothreitol (DTT) for 10 min at room temperature prior to electrotransfer.
# (§2) Immunoblotting: Transfer membranes were rinsed once in TBST (15 mM Tris, 150 mM NaCl, 0.1% Tween-20), blocked using TST plus 5% BSA for 1 h at room temperature, and then washed four times (5 min each) in TBST. Primary antibody and secondary antibodies were diluted in TBST and each of […] incubations was 1 h at room temperature followed by 4 washes in TBST. On occasion, primary antibodies were incubated overnight at 4° C. Secondary antibodies were all HRP-conjugates. Development of immunoblots used enhanced chemiluminescence (Immobilon, Millipore, or SuperSignal West Pico PLUS, Thermo Fisher Scientific) with images captured using a Fotodyne gel imager.
# Islet Isolation: Islets were isolated by collagenase P (Roche) perfusion as described following by histopaque-1077 (Sigma-Aldrich, Inc. St. Louis) gradient purification. Islets were handpicked and studied directly or after overnight culture in RPMI 1640 medium (Corning 10-040-CV) supplemented with 10% FBS, 1% penicillin/streptomycin, 100 μg/m1 primocin, 10mM Hepes, and 1mM sodium pyruvate.
# Islet Western Blotting: Isolated islets were lysed in RIPA buffer (10 mM Tris pH 7.4, 150 mM NaCl, 0.1% SDS, 1% NP-40, 2mM EDTA) with protease and phosphatase inhibitors (Fisher Scientific) on ice for 10 min and lysates were collected after centrifugation at 4° C. for 10 min at 12000 g. Samples were prepared in Laemmli sample buffer without (non-reducing) or with (reducing) 5% β-mercaptoethanol. After boiling for 5 min, samples were analyzed by SDS-PAGE (4-12% Bis-Tris gel, (Bio-Rad Laboratories, Inc.)) and transferred to nitrocellulose membranes (Bio-Rad Laboratories, Inc.). […]
# INS1E cells = experiment: Proinsulin disulfide-linked complexes in INS1E cells, nonreducing/reducing SDS-PAGE and immunoblotting (mAb CCI-17); format: cell-based, rat; details: INS1E cells
# Experimental: HEK293T human cells lines were cultured in DMEM supplemented with 10% FBS and penicillin/streptomycin.
# as §1, with “Islets that had been quick frozen were placed on ice and RIPA buffer containing protease inhibitor cocktail and phosphatase inhibitor was added.” left out, “Total protein concentration in the lysate was determined by BCA or Bramhall assay, and 5-10 μg of samples prepared in SDS sample were resolved by SDS-PAGE in 4-12% Bis-Tris NuPAGE gels (Invitrogen) at 200 V for 30 min.” left out
# The lane was then laid horizontally on top of a 10% SDS-polyacrylamide resolving gel and sealed in place in stacking gel. A single-tooth comb was introduced at one end of the stacking gel to introduce a one-dimensional reduced sample of proinsulin containing cell lysate (which runs as proinsulin monomer). The gel was run at 200 V for 45 mins in Tris-Glycine buffer pH 8.8 with electrotransfer as described above.
# as §2
# islets = experiment: Analysis of oxidative stress in islets (CellROX Deep Red, Hoechst 33342); format: cell-based, mouse; details: islets after 30 wks HFD, menadione 10 μM, 3 h
# Experimental: Analysis of Oxidative Stress: Islets were plated onto CellCarrier™-96 ultra microplates (Perkin Elmer) in phenol red-free RPMI 1640 medium supplemented with 10% FBS, 1% penicillin/streptomycin, 100 μg/ml primocin, 10mM Hepes, and 1 mM sodium pyruvate one day prior to staining. Islets were treated with menadione (AdipoGen Life Science, 10 μM) for 3 h at 37° C. Islets were stained with CellROX® Deep Red reagent (Molecular Probes, C10422, 100 μM) and Hoechst 33342 (Invitrogen, 10 μg/ml) for 1 h at the same time. Islets were washed three times with HBSS and incubated in HBSS for imaging while temperature and CO2 were controlled. […]
# Because ER stress is linked with oxidative stress, the inventors tested whether Pdia1 deletion confers increased sensitivity to oxidants by treating islets (isolated after 30 wks of HFD) with the vitamin K analogue menadione, which can render cells susceptible to apoptosis by increasing cytosolic calcium with nuclear condensation. […] In FIG. 21B, quantification of ROS mean intensity is shown. CellROX Deep Red mean intensity (divided by area) was measured by image J software. […] In FIG. 21C, quantification of nuclear mean area (μm^2) measured in Hoechst 33342 stained images by ImageJ software is shown. […] Quantification of the ratio of HMW proinsulin complexes (a) to monomeric proinsulin under reducing conditions is shown in graph (lower). […]
# [2] = islets, NEM treatment to alkylate free sulfhydryls
smiles,measurement,setting,value
"C[C@H]1CCC/C=C/[C@@H]2C[C@H](O)C[C@H]2[C@H](O)/C=C/C(=O)O1 [BFA, brefeldin A]",proinsulin complex formation,[1],significantly increased proinsulin complex formation
C#CCNc1nc(NCCNC(=O)CCl)nc(N(C)CCCCc2ccccc2)n1 [KSC-34],"HMW proinsulin complexes, combination with menadione","mouse pancreatic islets; WT murine islets, KSC-34 3 h then menadione 100 μM 1 h",recapitulated the effect of Pdia1 deletion upon menadione treatment
same,HMW proinsulin complexes,"mouse pancreatic islets; WT murine islets, KSC-34 alone, 3 h",slightly increased HMW complexes
CCN1C(=O)C=CC1=O [N-ethylmaleimide],HMW proinsulin-containing complexes,mouse pancreatic islets; [2],slightly increased the HMW proinsulin-containing complexes
same,disulfide-linked proinsulin oligomers,mouse pancreatic islets; [2],slightly reduced the disulfide-linked oligomers
CC(C)NCCCn1c(Sc2cc(Cl)cc(Cl)c2)nc2c(N)ncnc21 [PU-WS13],proinsulin disulfide-linked complex formation triggered by acute loss of BiP,"INS1E cells; PU-WS13 20 μM 24 h, SubAB during last 3 h",did not exacerbate the proinsulin disulfide-linked complex formation
same,proinsulin disulfide-linked complex formation,"INS1E cells; PU-WS13 20 μM, 24 h",did not promote proinsulin disulfide-linked complex formation
C[C@@H]1C[C@@H]([C@H](O)CC2CC(=O)NC(=O)C2)C(=O)[C@@H](C)C1 [cycloheximide],proinsulin complex formation,[1],did not significantly affect the results
CC1=CC(=O)c2ccccc2C1=O [menadione],ROS (CellROX Deep Red stain),islets,significantly increased ROS
same,nuclear size (Hoechst 33342),islets,promoted nuclear condensation
same,"HMW proinsulin complexes (49-198 kDa), increase by Pdia1 deletion vs WT islets","mouse pancreatic islets; islets after 37 wks HFD, menadione 100 μM, 1 h",this effect was even greater in islets treated with menadione
